Laboratory results reported in paper PMC7824769, “Identification of Small Molecules Blocking the Pseudomonas aeruginosa Type III Secretion System Protein PcrV” (Biomolecules, 2021).

Target: PcrV (Pseudomonas aeruginosa, UniProt G3XD49)
Assay: SPR library screening at 100 µM, PcrV versus deactivated control protein CAII
Type: binding
Details: Figure 2
Procedure: The SPR screening was performed using the ProteOn^TM XPR36 Protein Interaction Array System (Bio-Rad Laboratories Inc., Hercules, CA, USA) with ProteOn GLH sensor chip (Bio-Rad Laboratories Inc., Hercules, CA, USA), and the results were analyzed with the ProteOn Manager software^TM (Bio-Rad Laboratories Inc., Hercules, CA, USA), Excel 2016 (Microsoft Office), and GraphPad Prism 7.04. All SPR experiments were performed at 25 °C. The multichannel module of the ProteOn system was in the vertical position during protein immobilization. The proteins were attached to the surface of a GLH sensor chip via amine coupling chemistry. A buffer scouting was performed to elucidate the optimal binding conditions of PcrV to the GLH sensor chip. First, channels 1–4 on the chip surface were activated using a 1:1 mixture of 40 mM 1-ethyl-3-(3-dimethylaminopropyl)carbodiimide hydrochloride (EDAC) (Bio-Rad Laboratories Inc., Hercules, CA, USA) and 10 mM N-hydroxysulfosuccinimide (sulfo-NHS, Bio-Rad Laboratories Inc., Hercules, CA, USA) for 300 s at 30 µL/min. Next, the proteins PcrV (33,398.6 Da, 6.37 mg/mL) was diluted in 10 mM NaOAc (pH 4, 4.5, and 5) to 0.05 mg/mL. PcrV was immobilized in channel 1–3 for 540 s at 30 µL/min. […] The final amount of immobilized protein was measured in resonance units (RU) relative to the signal of the baseline prior activation. […]

PcrV, sequence (G3XD49 entry or part of it): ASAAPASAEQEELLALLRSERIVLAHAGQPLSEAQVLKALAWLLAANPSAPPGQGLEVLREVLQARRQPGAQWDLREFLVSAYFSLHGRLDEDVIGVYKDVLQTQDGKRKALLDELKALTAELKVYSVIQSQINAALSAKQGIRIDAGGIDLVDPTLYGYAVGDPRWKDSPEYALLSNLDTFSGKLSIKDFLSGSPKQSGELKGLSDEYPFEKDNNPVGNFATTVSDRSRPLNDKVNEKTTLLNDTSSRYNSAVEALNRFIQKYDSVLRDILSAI

## Cc1c(Br)ccc(OCCCC(=O)O)c1C [Compound H1]
  Selectivity of binding to PcrV over CAII in SPR screening: selective PcrV binders
